Measurements from US20250296971A1, “GASTRIC INHIBITORY PEPTIDE RECEPTOR LIGANDS” (priority 2021, published 2025).
*1 amine or outer side, *2 acyl side, *3 side chain or, on linkers, in order; H or OH if unused. Where a SMILES comes first, the peptide text is derived from it. Bridges are numbered along the chain shown (N, C = ends). [ ]: non-standard residue; d: D form. Trp(5-Cl) = N[C@@H](Cc1c[nH]c2ccc(Cl)cc12)C(=O)O; Pyridine(2,6-diCH2) = c1cc(C[*:1])nc(C[*:2])c1; Pro(trans-4-F) = O=C(O)[C@@H]1C[C@@H](F)CN1; mXylylene = c1cc(C[*:1])cc(C[*:2])c1; N(CH2CH2COOH)Gly = O=C(O)CCNCC(=O)O; Cya = N[C@@H](CS(=O)(=O)O)C(=O)O; Hyp = O=C(O)[C@@H]1C[C@@H](O)CN1; Suc = O=C(CCC(=O)[*:2])[*:1]; hSer = N[C@@H](CCO)C(=O)O; Nphe = O=C(O)CNCc1ccccc1; Thp = NC1(C(=O)O)CCOCC1; Aib = CC(C)(N)C(=O)O; Nlys = NCCCCNCC(=O)O

Target: T1, GIPR (CHO-K1-hGIPR cells) (Homo sapiens, UniProt P48546)
T1 construct: host or cells: CHO-K1
T1 sequence (P48546 22-466): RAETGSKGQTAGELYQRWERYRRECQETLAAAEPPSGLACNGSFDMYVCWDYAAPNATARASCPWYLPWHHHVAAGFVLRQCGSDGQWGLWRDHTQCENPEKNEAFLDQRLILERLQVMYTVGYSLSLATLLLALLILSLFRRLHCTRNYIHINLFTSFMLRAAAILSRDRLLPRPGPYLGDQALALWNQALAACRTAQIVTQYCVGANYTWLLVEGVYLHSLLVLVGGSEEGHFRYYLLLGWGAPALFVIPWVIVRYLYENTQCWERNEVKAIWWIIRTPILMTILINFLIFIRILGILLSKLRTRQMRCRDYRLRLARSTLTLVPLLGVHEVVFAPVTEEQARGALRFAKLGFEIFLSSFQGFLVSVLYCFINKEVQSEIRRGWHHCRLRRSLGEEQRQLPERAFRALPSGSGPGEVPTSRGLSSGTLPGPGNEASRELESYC
Experiment: FACS binding assay
Conditions: competition with 20 nM GIP-057, 4° C., 1 hour, read-out: pIC50 Category (converted)
How it was run: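 Read-out: flow cytometric median fluorescence intensity, APC/Cy5 channel, plotted vs peptide conc.; 4PL fit → EC50/pEC50 or IC50/pIC50. Cells: CHO-K1-hGIPR, Accutase-detached, 500.000/mL in PBS + 1% FCS. Detection: APC-streptavidin 1 μg/mL, 30 min, on ice.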

SMILES | IC50 [nM]
CC[C@H](C)[C@@H]1NC(=O)[C@H](CC(C)C)NC(=O)C2(CCOCC2)NC(=O)[C@@H](NC(=O)[C@@H](CC(C)C)NC(=O)[C@H](CCC(=O)O)NC(=O)CN(Cc2ccccc2)C(=O)[C@H](Cc2c[nH]c3ccc(Cl)cc23)NC(=O)[C@H](Cc2c[nH]c3ccccc23)NC(=O)[C@H](CC(=O)O)NC(C)=O)CSCc2cccc(n2)CSC[C@@H](C(N)=O)NC1=O [GIP-185, Ac-Asp-Trp-5Clw-Nphe-Glu-leu-[Cys(2Lut)-Thp-Leu-Ile-Cys]-NH2] (Ac-DW[Trp(5-Cl)][Nphe]E[dL]C[Thp]LIC-NH2; linker 7-11 via Pyridine(2,6-diCH2)) | < 10
CC[C@H](C)[C@@H]1NC(=O)[C@H](CC(C)C)NC(=O)C2(CCOCC2)NC(=O)[C@@H](NC(=O)[C@@H](CC(C)C)NC(=O)[C@H](CCC(=O)O)NC(=O)CN(CCCCN)C(=O)[C@H](Cc2c[nH]c3ccc(Cl)cc23)NC(=O)[C@H](Cc2c[nH]c3ccccc23)NC(=O)[C@H](CC(=O)O)NC(C)=O)CSCc2cccc(n2)CSC[C@@H](C(N)=O)NC1=O [GIP-186, Ac-Asp-Trp-5Clw-Nlys-Glu-leu-[Cys(2Lut)-Thp-Leu-Ile-Cys]-NH2] (Ac-DW[Trp(5-Cl)][Nlys]E[dL]C[Thp]LIC-NH2; linker 7-11 via Pyridine(2,6-diCH2)) | < 10
CC[C@H](C)[C@@H]1NC(=O)[C@H](CC(C)C)NC(=O)C2(CCOCC2)NC(=O)[C@@H](NC(=O)[C@@H](CC(C)C)NC(=O)[C@H](CCC(=O)O)NC(=O)[C@@H]2C[C@@H](F)CN2C(=O)[C@H](Cc2c[nH]c3ccc(Cl)cc23)NC(=O)[C@H](Cc2c[nH]c3ccccc23)NC(=O)[C@H](CC(=O)O)NC(C)=O)CSCc2cccc(n2)CSC[C@@H](C(N)=O)NC1=O [GIP-187, Ac-Asp-Trp-5Clw-4Tfp-Glu-leu-[Cys(2Lut)-Thp-Leu-Ile-Cys]-NH2] (Ac-DW[Trp(5-Cl)][Pro(trans-4-F)]E[dL]C[Thp]LIC-NH2; linker 7-11 via Pyridine(2,6-diCH2)) | < 10
CC[C@H](C)[C@@H]1NC(=O)[C@H](CC(C)C)NC(=O)C2(CCOCC2)NC(=O)[C@@H](NC(=O)[C@@H](CC(C)C)NC(=O)[C@H](CCC(=O)O)NC(=O)[C@@H]2C[C@@H](O)CN2C(=O)[C@H](Cc2c[nH]c3ccc(Cl)cc23)NC(=O)[C@H](Cc2c[nH]c3ccccc23)NC(=O)[C@H](CS(=O)(=O)O)NC(C)=O)CSCc2cccc(n2)CSC[C@@H](C(N)=O)NC1=O [GIP-189, Ac-Cya-Trp-5Clw-Hyp-Glu-leu-[Cys(2Lut)-Thp-Leu-Ile-Cys]-NH2] (Ac-[Cya]W[Trp(5-Cl)][Hyp]E[dL]C[Thp]LIC-NH2; linker 7-11 via Pyridine(2,6-diCH2)) | < 10
CC[C@H](C)[C@@H]1NC(=O)[C@H](CC(C)C)NC(=O)C2(CCOCC2)NC(=O)[C@@H](NC(=O)[C@@H](CC(C)C)NC(=O)[C@H](CCC(=O)O)NC(=O)[C@@H]2C[C@@H](O)CN2C(=O)[C@H](Cc2c[nH]c3ccc(Cl)cc23)NC(=O)[C@H](Cc2c[nH]c3ccccc23)NC(=O)[C@H](CC(N)=O)NC(C)=O)CSCc2cccc(n2)CSC[C@@H](C(N)=O)NC1=O [GIP-190, Ac-Asn-Trp-5Clw-Hyp-Glu-leu-[Cys(2Lut)-Thp-Leu-Ile-Cys]-NH2] (Ac-NW[Trp(5-Cl)][Hyp]E[dL]C[Thp]LIC-NH2; linker 7-11 via Pyridine(2,6-diCH2)) | < 10
CC[C@H](C)[C@@H]1NC(=O)[C@H](CC(C)C)NC(=O)C2(CCOCC2)NC(=O)[C@@H](NC(=O)[C@@H](CC(C)C)NC(=O)[C@H](CCC(=O)O)NC(=O)[C@@H]2C[C@@H](O)CN2C(=O)[C@H](Cc2c[nH]c3ccc(Cl)cc23)NC(=O)[C@H](Cc2c[nH]c3ccccc23)NC(=O)[C@H](CCC(=O)O)NC(C)=O)CSCc2cccc(n2)CSC[C@@H](C(N)=O)NC1=O [GIP-191, Ac-Asn-Trp-5Clw-Hyp-Glu-leu-[Cys(2Lut)-Thp-Leu-Ile-Cys]-NH2] (Ac-EW[Trp(5-Cl)][Hyp]E[dL]C[Thp]LIC-NH2; linker 7-11 via Pyridine(2,6-diCH2)) | < 10
CC[C@H](C)[C@@H]1NC(=O)[C@H](CC(C)C)NC(=O)C2(CCOCC2)NC(=O)[C@@H](NC(=O)[C@@H](CC(C)C)NC(=O)[C@H](CC(=O)O)NC(=O)[C@@H]2C[C@@H](O)CN2C(=O)[C@H](Cc2c[nH]c3ccc(Cl)cc23)NC(=O)[C@H](Cc2c[nH]c3ccccc23)NC(=O)[C@H](CC(=O)O)NC(C)=O)CSCc2cccc(n2)CSC[C@@H](C(N)=O)NC1=O [GIP-192, Ac-Asp-Trp-5Clw-Hyp-Asp-leu-[Cys(2Lut)-Thp-Leu-Ile-Cys]-NH2] (Ac-DW[Trp(5-Cl)][Hyp]D[dL]C[Thp]LIC-NH2; linker 7-11 via Pyridine(2,6-diCH2)) | < 10
CC[C@H](C)[C@@H]1NC(=O)[C@H](CC(C)C)NC(=O)C2(CCOCC2)NC(=O)[C@@H](NC(=O)[C@@H](CC(C)C)NC(=O)[C@H](CCC(N)=O)NC(=O)[C@@H]2C[C@@H](O)CN2C(=O)[C@H](Cc2c[nH]c3ccc(Cl)cc23)NC(=O)[C@H](Cc2c[nH]c3ccccc23)NC(=O)[C@H](CC(=O)O)NC(C)=O)CSCc2cccc(n2)CSC[C@@H](C(N)=O)NC1=O [GIP-193, Ac-Asp-Trp-5Clw-Hyp-Gln-leu-[Cys(2Lut)-Thp-Leu-Ile-Cys]-NH2] (Ac-DW[Trp(5-Cl)][Hyp]Q[dL]C[Thp]LIC-NH2; linker 7-11 via Pyridine(2,6-diCH2)) | < 10
CC[C@H](C)[C@@H]1NC(=O)[C@H](CC(C)C)NC(=O)C2(CCOCC2)NC(=O)[C@@H](NC(=O)[C@@H](CC(C)C)NC(=O)[C@H](CCC(=O)O)NC(=O)[C@@H]2C[C@@H](O)CN2C(=O)[C@H](Cc2c[nH]c3ccc(Cl)cc23)NC(=O)[C@H](Cc2c[nH]c3ccccc23)NC(=O)[C@H](CCO)NC(C)=O)CSCc2cccc(n2)CSC[C@@H](C(N)=O)NC1=O [GIP-195, Ac-Hse-Trp-5Clw-Hyp-Glu-leu-[Cys(2Lut)-Thp-Leu-Ile-Cys]-NH2] (Ac-[hSer]W[Trp(5-Cl)][Hyp]E[dL]C[Thp]LIC-NH2; linker 7-11 via Pyridine(2,6-diCH2)) | < 10
CC[C@H](C)[C@@H]1NC(=O)[C@H](CC(C)C)NC(=O)C2(CCOCC2)NC(=O)[C@@H](NC(=O)[C@@H](CC(C)C)NC(=O)[C@H](CCC(=O)O)NC(=O)CN(CCC(=O)O)C(=O)[C@H](Cc2c[nH]c3ccc(Cl)cc23)NC(=O)[C@H](Cc2c[nH]c3ccccc23)NC(=O)[C@H](CC(=O)O)NC(C)=O)CSCc2cccc(n2)CSC[C@@H](C(N)=O)NC1=O [GIP-196, Ac-Asp-Trp-5Clw-Nglu-Glu-leu-[Cys(2Lut)-Thp-Leu-Ile-Cys]-NH2] (Ac-DW[Trp(5-Cl)][N(CH2CH2COOH)Gly]E[dL]C[Thp]LIC-NH2; linker 7-11 via Pyridine(2,6-diCH2)) | < 10
CC[C@H](C)[C@@H]1NC(=O)[C@H](CC(C)C)NC(=O)C(C)(C)NC(=O)[C@@H](NC(=O)[C@@H](CC(C)C)NC(=O)[C@H](CCC(=O)O)NC(=O)[C@@H]2CCCN2C(=O)[C@H](Cc2c[nH]c3ccc(Cl)cc23)NC(=O)[C@H](Cc2c[nH]c3ccccc23)NC(=O)CCC(=O)O)CSCc2cccc(c2)CSC[C@@H](C(N)=O)NC1=O [GIP-198, HO-Succinyl-Trp-5Clw-Pro-Glu-leu-[Cys(3MeBn)-Aib-Leu-Ile-Cys]-NH2] (Suc-W[Trp(5-Cl)]PE[dL]C[Aib]LIC-NH2; linker 6-10 via mXylylene) | < 10
